Reference: patent US5412095A, “Terazosin monohydrochloride and processes and intermediate for its production” (Abbott Laboratories, priority 1994, dated 1995)
Where a name gives a salt, the structure may show the parent alone. Read-outs that look alike come from different tables or passages of the source.

Legend:
[1] = Solubility/dissolution of forms of terazosin monohydrochloride in distilled water (shaken, 0.45 µm filtered, UV at 254 nm); format: physicochemical; settings: for solubility at 0.5 min / solubility at 1 min / solubility at 2 min / solubility at 4 min / Solubility of Various Forms of Terazosin Monohydrochloride: distilled water, 2 g in 5 mL; for solubility at 0.5 min / solubility at 1 min / solubility at 2 min / solubility at 4 min: read-out: Solubility of Various Forms of Terazosin Monohydrochloride; for dissolution in water (in words): qualitative
Description: The data in Table 1 were collected, for each data point, by weighing 2 g samples of terazosin monohydrochloride dihydrate and each of Forms I, II and II of the non-solvated monohydrochloride separately into 50 mL centrifuge tubes. Five mL of distilled water were added to each tube and the tubes shaken for the times indicated and then rapidly filtered through a 0.45 μu nylon membrane filter. The resulting flitrates were serially diluted with water 2 to […], 5 to 50, 5 to 50 and 5 to 100 mL and the ultraviolet absorption maximum at 254 nm measured. The concentrations of the dissolved terazosin were then calculated from the absorption data using dam from a series of standard concentrations.

[2] = Acidic cleavage of terazosin in aqueous acid; format: physicochemical; settings: aqueous medium, cleaves into 4-amino-6,7-dimethoxy-2-piperazinylquinazoline and 2-furoic acid
Description: In the particular case of terazosin, when the parent compound or its hydrochloride salt is in contact for extended periods with aqueous acid, it undergoes an undesirable side reaction which cleaves the compound into its constituent parts: [drawing 2]
Moreover, if the hydrochloride salt is prepared by lyophilization of the reaction mixture of terazosin free base and hydrochloric acid, unless care is taken to remove any excess acid present in the isolated salt, the solid may also contain small amounts of acid which causes degradative cleavage over time.

[3] = free base form; cited from earlier work

COc1cc2nc(N3CCN(C(=O)C4CCCO4)CC3)nc(N)c2cc1OC.Cl.O.O (stereo not shown) [Dihydrate, 1-(4-Amino-6,7-dimethoxy-2-quinazolinyl)-4-(tetrahydro-2-furoyl)piperazine monohydrochloride dihydrate]
solubility at 0.5 min ([1]; 0.5 minutes): 29 mg/mL
solubility at 1 min ([1]; 1 minute): 30 mg/mL
solubility at 2 min ([1]; 2 minutes): 27 mg/mL
solubility at 4 min ([1]; 4 minutes): 26 mg/mL
solubility ([1]; water, rapidly reached, read-out: limit of solubility): ~30 mg/mL

COc1cc2nc(N3CCN(C(=O)C4CCCO4)CC3)nc(N)c2cc1OC (stereo not shown) [Form I, 1-(4-amino-6,7-dimethoxy-2-quinazolinyl)-4-(tetrahydro-2-furoyl)piperazinemonohydrochloride]
solubility at 0.5 min ([1]; water, 0.5 minutes): 273 mg/mL
solubility at 1 min ([1]; water, 1 minute): 283 mg/mL
solubility at 2 min ([1]; water, 2 minutes): 289 mg/mL
solubility at 4 min ([1]; water, 4 minutes): 276 mg/mL

COc1cc2nc(N3CCN(C(=O)C4CCCO4)CC3)nc(N)c2cc1OC (stereo not shown) [Form II, 1-(4-amino-6,7-dimethoxy-2-quinazolinyl)-4-(tetrahydro-2-furoyl)piperazinemonohydrochloride]
Solubility of Various Forms of Terazosin Monohydrochloride ([1]; 0.5 minutes): 280 mg/mL
Solubility of Various Forms of Terazosin Monohydrochloride ([1]; 1 minute, 1 min): 253 mg/mL
Solubility of Various Forms of Terazosin Monohydrochloride ([1]; 2 minutes): 311 mg/mL
Solubility of Various Forms of Terazosin Monohydrochloride ([1]; 4 minutes): 323 mg/mL

COc1cc2nc(N3CCN(C(=O)C4CCCO4)CC3)nc(N)c2cc1OC (stereo not shown) [Form III, 1-(4-amino-6,7-dimethoxy-2-quinazolinyl)-4-(tetrahydro-2-furoyl)piperazinemonohydrochloride]
Solubility of Various Forms of Terazosin Monohydrochloride ([1]; 0.5 minutes): 235 mg/mL
Solubility of Various Forms of Terazosin Monohydrochloride ([1]; 1 minute, 1 min): 237 mg/mL
Solubility of Various Forms of Terazosin Monohydrochloride ([1]; 2 minutes): 269 mg/mL
Solubility of Various Forms of Terazosin Monohydrochloride ([1]; 4 minutes): 261 mg/mL
solubility rapidly achieved relative to the dihydrate limit (about 30 mg/mL) ([1]; water, multiple of dihydrate solubility): about ten times
dissolution in water (in words) ([1]; water): rapidly dissolves in water
dissolution in water (in words) ([1]; water, listed as terazosin monohydrochloride Form III): dissolves in water much more rapidly than the dihydrate form

COc1cc2nc(N3CCN(C(=O)C4CCCO4)CC3)nc(N)c2cc1OC (stereo not shown) [terazosin, 1-(4-amino-6,7-dimethoxy-2-quinazolinyl)-4-(tetrahydro-2furoyl)piperazine]
acidic cleavage (stability) [2]: occurs rapidly in aqueous medium
solubility for oral administration (in words) [3]: does not possess the requisite solubility for convenient oral administration
